The values that follow come from US10759785B2, “Compounds” (ENTERPRISE THERAPEUTICS LIMITED, priority 2016, dated 2020).

What all share (format): in vitro ADME
The nature of data set [1]: Microsomal stability (rat microsomes). The conditions noted are these: pH 7.4, 1 μM test compound, 0.5 mg/mL protein, 1 mM NADPH, 37° C., read-out: Averages. Mic Half Life Rat. As to the method: Example 28—Microsomal Stability
Microsomes (rat and human) were obtained from Bioreclamation. Test compound stock solutions in DMSO (10 mM) were diluted with DMSO to 2 mM. Further dilution was completed to achieve a 100 μM stock (final concentrations; 91.5% Acetonitrile: 8.5% DMSO). Final test compound concentration in incubation was 1 μM (<0.1% DMSO). The following probe substrates were used: verapamil, propranolol, metoprolol and phenacetin (rat) at a final incubation concentration of 1 μM. Assay buffer—Solution 1: 17.4 g potassium phosphate dibasic anhydrous (K2HPO4, 0.1 M) dissolved in 1 L deionised water. Solution 2: 13.6 g potassium phosphate monobasic anhydrous (KH2PO4, 0.1 M) dissolved in 1 L deionised water. Potassium phosphate solutions 1 and 2 were combined to form a pH 7.42 solution at 37° C. pH 7.4 with 2 mM magnesium chloride. NADPH (10 mM)—diluted in deionised water. Frozen microsomes were thawed at 37° C. Microsomes were diluted in assay buffer to achieve a final protein concentration of 0.5 mg/mL and 1 mM NADPH. The following procedure was completed on a Perkin Elmer Janus robotic platform in 96 well format: The microsomal incubation plate was transferred to a heater shaker at 300 rpm and solution heated to 37° C. for 10 min pre-warm. A no co-factor control at 0 and 45 min and one replicates of each test compound was included in every assay. Microsomes were incubated at 37° C., on a shaker set at 300 rpm throughout the assay. At each timepoint (0, 5, 15, 30, 45 min) 50 μL of sample was removed from the 96-well and added to 200 μL of quench solution (acetonitrile containing 0.1% formic acid and imipramine/labetalol, 200 nM). Samples were diluted 1:1 with water using the Janus Robot and analysed by LC-MS/MS.

The nature of data set [2]: Hepatic stability (human cryopreserved hepatocytes). Particulars: cryopreserved hepatocytes, pH 7.4, 1 μM test compound, 1×10^6 cells/mL, 37° C., read-out: Averages. Hep Half Life Human. As to the method:
(§1) Example 29—Hepatic Stability
(§2) Cryopreserved hepatocytes (rat and human) were obtained from Bioreclamation. Test compound stock solutions in DMSO (10 mM) were diluted with DMSO to 4 mM. Further dilution was completed to achieve a 100 μM stock (5 μL of 4 mM in 195 μL of 50:50 DMSO:hepatocyte buffer). Final test compound concentration in incubation was 1 μM. The following probe substrates were used: testosterone and carbamazepine at a final incubation concentration of 1 μM. Hepatocyte buffer was prepared (Williams E media containing phenol red and Glutamax™, 15 mM HEPES, warmed to 37° C., pH7.4 with NaOH). Cells were removed from liquid nitrogen, thawed in a waterbath, decanted into 50 mL of pre-warmed Cryopreserved Hepatocyte Recovery Media (LifeTechnologies) and centrifuged. Supernatant fraction was removed, cells were re-suspended in hepatocyte buffer and counted by trypan blue exclusion. Cell viability of >80% was required for all assays. Cells were re-suspended to 1×10^6/mL and 198 μL cell suspension added to each 96-well. 2 μL of 100 μM compound stock solution was added to relevant wells to initiate the incubation. A no cell control and two replicates of each test compound was included in every assay. Cells were incubated at 37° C., on a shaker set at 300 rpm. At each timepoint (0, 15, 30, 45, 60, 90 min) 20 μL of sample was removed from the 96-well and added to 80 μL of quench solution (acetonitrile containing 0.1% formic acid and imipramine/labetalol, 200 nM). Samples were diluted 1:1 with water using the Janus Robot and analysed by LC-MS/MS.

The nature of data set [3]: Hepatic stability (rat cryopreserved hepatocytes). Particulars: pH 7.4, 1 μM test compound, 1×10^6 cells/mL, 37° C., read-out: Averages. Hep Half Life Rat. How it is done:
as §1, §2

Each structure is given as a SMILES string. Counter-ions that a name gives are not always drawn.

As to `CCn1c(CNC(=O)c2nc(Br)cnc2N)[n+](CC)c2ccc(-c3cnn(C4CCN(C[C@H](O)[C@@H](O)[C@H](O)[C@H](O)CO)CC4)c3)cc21.O=CO.[Cl-]` [Example 23, 2-{[(3-amino-6-bromopyrazin-2-yl)formamido]methyl}-1,3-diethyl-6-(1-{1-[(2S,3R,4R,5R)-2,3,4,5,6-pentahydroxyhexyl]piperidin-4-yl}-1H-pyrazol-4-yl)-1H-1,3-benzodiazol-3-ium formic acid chloride], the half-life at 1 μM is more than 138 min in data set [1], 72 min in data set [2] and 124 min in data set [3].
The like results for `CCn1c(CNC(=O)c2nc(Br)cnc2N)[n+](CC)c2ccc(OCCNC(=O)OC(C)(C)C)cc21.O=C[O-]` [Example 24, 2-{[(3-amino-6-bromopyrazin-2-yl)formamido]methyl}-6-(2-{[(tert-butoxy)carbonyl]amino}ethoxy)-1,3-diethyl-1H-1,3-benzodiazol-3-ium formate] were, in that order, 37 min, 73 min and 42 min.
Regarding `CCn1c(CNC(=O)c2nc(Br)cnc2N)[n+](CC)c2ccc(OCCN)cc21.Cl.[Cl-]` [Example 25, 2-{[(3-Amino-6-bromopyrazin-2-yl)formamido]methyl}-6-(2-aminoethoxy)-1,3-diethyl-1H-1,3-benzodiazol-3-ium hydrochloride chloride], the half-life at 1 μM in data set [1] is more than 138 min; in data set [2], more than 240 min; in data set [3] it was 59 min.
The like results for `CCn1c(CNC(=O)c2nc(C#N)cnc2N)[n+](CC)c2ccc(OC)cc21` [Example 26, 2-{[(3-amino-6-cyanopyrazin-2-yl)formamido]methyl}-1,3-diethyl-6-methoxy-1H-1,3-benzodiazol-3-ium formate] were, in that order, less than 3 min, 232 min and 23 min.

For orientation: half-life means the time in which the quantity being followed falls by half.
